Experimental data as given in the NIST ThermoML archive (doi:10.1016/j.jct.2010.12.007).

Legend:
[1] = Crystal; for vapor or sublimation pressure: Transpiration method; for Normal melting temperature: DTA
[2] = Molar enthalpy of transition or fusion; details: Crystal; DSC

O=[N+]([O-])c1ccc(NS(=O)(=O)c2ccccc2)cc1 [N-(4-nitrophenyl)benzenesulfonamide]
[1]
Details | vapor or sublimation pressure [kPa]
380.15 K | 9.47e-06
384.15 K | 1.55e-05
385.15 K | 1.72e-05
387.15 K | 2.09e-05
390.15 K | 2.84e-05
391.15 K | 3.17e-05
392.15 K | 3.47e-05
393.15 K | 3.88e-05
394.15 K | 4.04e-05
395.15 K | 4.64e-05
396.65 K | 5.13e-05
401.15 K | 8.37e-05
401.65 K | 8.63e-05

Details | Molar enthalpy of transition or fusion [kcal/mol] | Normal melting temperature [°C]
[1] | – | 138.2
[2] | 6.86 | –

Nc1ccc(S(=O)(=O)Nc2ccc([N+](=O)[O-])cc2)cc1 [4-amino-N-(4-nitrophenyl)benzenesulfonamide]
[1]
Details | vapor or sublimation pressure [kPa]
405.55 K | 1.5e-06
409.45 K | 2.18e-06
412.85 K | 2.3e-06
415.15 K | 3.41e-06
417.25 K | 4.01e-06
418.75 K | 4.34e-06
420.05 K | 5.46e-06
421.55 K | 5.63e-06
423.25 K | 6.16e-06
424.65 K | 7.3e-06
426.25 K | 8.92e-06
428.75 K | 1.05e-05
431.35 K | 1.28e-05
432.05 K | 1.41e-05
435.15 K | 1.81e-05
438.25 K | 2.28e-05

Details | Molar enthalpy of transition or fusion [kcal/mol] | Normal melting temperature [°C]
[1] | – | 165.8
[2] | 6.67 | –

N#Cc1ccc(NS(=O)(=O)c2ccc(N)cc2)cc1 [4-amino-N-(4-cyanophenyl)benzenesulfonamide]
[1]
Details | vapor or sublimation pressure [kPa]
420.15 K | 6.74e-06
420.95 K | 7.23e-06
421.35 K | 7.91e-06
424.75 K | 1.13e-05
426.55 K | 1.36e-05
428.35 K | 1.66e-05
429.65 K | 1.94e-05
431.35 K | 2.11e-05
431.75 K | 2.28e-05
432.35 K | 2.33e-05
433.05 K | 2.63e-05
434.75 K | 3.17e-05
435.75 K | 3.58e-05
437.15 K | 4.24e-05
437.55 K | 4.37e-05

Details | Molar enthalpy of transition or fusion [kcal/mol] | Normal melting temperature [°C]
[1] | – | 178.4
[2] | 7.39 | –
